Data taken from patent US8808713B2, “Compositions for pulmonary delivery of long-acting β2 adrenergic receptor agonists and associated methods and systems” (Pearl Thereapeutics, Inc., priority 2009, dated 2014).
One block for each molecule: values may come before it.

Assays:
[1] = Visual observation of suspension quality / co-suspension in glass vials (settling, centrifugation); type: physicochemical
[2] = test system: patients with mild to moderate COPD; test: Multi-center clinical trial, single-dose crossover: spirometry (FEV1) and safety; conditions: 18 μg via Spiriva Handihaler

Visual observation: sedimentation of crystalline FF ([1]; glass vials, HFA 134a, left to settle 24 h): sedimented quickly
Structure (SMILES): COc1ccc(CC(C)NCC(O)c2ccc(O)c(NC=O)c2)cc1.O=C(O)/C=C/C(=O)O (racemic) [FF, (±)-2-hydroxy-5-[(1RS)-1-hydroxy-2-[[(1RS)-2-(4-methoxyphenyl)-1-methylethyl]-amino]ethyl]formanilide fumarate]

Structure (SMILES): C[N+]1(C)[C@@H]2C[C@@H](OC(=O)C(O)(c3cccs3)c3cccs3)C[C@H]1[C@@H]1O[C@@H]12 [tiotropium]
Mean time to ≧10% improvement in FEV1 [2]: approximately 3 hours

Structure (SMILES): OCc1cc(C(O)CNCCCCCCOCCCCc2ccccc2)ccc1O (stereo not drawn) [SX, 4-hydroxy-α1-[[[6-(4-phenylbutoxy)hexyl]amino]methyl]-1,3-benzenedimethanol, 1-hydroxy-2-naphthalenecarboxylate]
Visual observation: sedimentation of SX crystals ([1]; glass vials heated up to 30° C.-35° C. in a water bath): sedimented rapidly
